Test results taken from patent US12018021B2 (UCB Biopharma SRL, priority 2018, dated 2024).

Biological target: IgE-Tb / sFcεRIα-Y131A-AF488 (Homo sapiens, UniProt P01854, N146Q/N252Q)
Experiment: IgE-Tb / sFcεRIα-Y131A-AF488 FRET assay (protocol for examples 234 to 501)
Format: binding
Settings: examples 234 to 501: compound with IgE-Tb 30 minutes before sFcεRIα-Y131A-AF488, incubated 18 hours at room temperature; read-out: Y131A FRET IC50 range
Procedure: For examples 234 to 501, the assay was conducted according to the following: Each assay reaction was conducted in a volume of 25 μl in a 384-well half-volume plate. 10 point compound serial dilutions (3-fold) were generated in DMSO at a concentration of ×50 that of the final assay concentration (FAC). Compound solutions were then prepared by diluting 10-fold in assay buffer. For the assay, 5l of diluted compound was added to 10 μl of IgE-Tb and incubated for 30 minutes before the addition of 10 μ[…]. FRET reagents FACs were 5 nM IgE-Tb, 25 nM […]. Usually the top FAC of compound in the assay was 10 μM. The final DMSO concentration was 2%. […] The maximum FRET signal (MAX) was measured in wells containing FRET reagents but no compound. The assay was incubated for 18 hours at room temperature, protected from light and evaporation, and with gentle agitation. Measurement of FRET for each well was carried out by exciting at 337 nm and measuring emission at 490/520 nm using a PHERAstar FSX plate reader (BMG Labtech). FRET ratio was calculated as follows: Emission at 520/7Emission at 490×1000. The FRET ratio was used for the data analysis. […] Z' above 0.5 was considered a good assay. Background signal (MIN) was subtracted from all wells. […] Percent inhibition was plotted against compound concentration. IC50 values for each compound were determined using four parameter logistic fit model using the XLFIT5 software package.

IgE-Tb / sFcεRIα-Y131A-AF488, sequence (P01854 whole entry N146Q/N252Q): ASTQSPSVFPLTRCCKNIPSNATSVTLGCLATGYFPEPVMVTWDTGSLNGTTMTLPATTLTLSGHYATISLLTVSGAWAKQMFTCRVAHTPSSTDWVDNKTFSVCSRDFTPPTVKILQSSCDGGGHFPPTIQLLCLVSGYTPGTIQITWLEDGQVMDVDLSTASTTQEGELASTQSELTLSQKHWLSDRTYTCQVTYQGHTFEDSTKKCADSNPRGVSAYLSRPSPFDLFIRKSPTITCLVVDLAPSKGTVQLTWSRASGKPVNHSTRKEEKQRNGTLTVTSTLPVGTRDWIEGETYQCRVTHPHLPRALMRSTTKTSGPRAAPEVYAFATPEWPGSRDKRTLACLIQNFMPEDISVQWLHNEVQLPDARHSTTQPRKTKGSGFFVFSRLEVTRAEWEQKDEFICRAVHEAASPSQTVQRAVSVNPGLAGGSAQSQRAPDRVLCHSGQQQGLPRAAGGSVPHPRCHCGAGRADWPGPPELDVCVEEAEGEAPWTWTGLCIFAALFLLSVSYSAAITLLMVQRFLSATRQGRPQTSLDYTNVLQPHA

| SMILES | IC50 [µM] |
| --- | --- |
| CS(=O)(=O)N1CC[C@H](Nc2nncn2[C@H]2CCc3sc(NC(=O)C4CC4)c(C(=O)NCC4CC4)c3C2)C1 [Example 267, (5S)-2-(cyclopropanecarbonylamino)-N-(cyclopropylmethyl)-5-[3-[[(3S)-1-methylsulfonylpyrrolidin-3-yl]amino]-1,2,4-triazol-4-yl]-4,5,6,7-tetrahydrobenzothiophene-3-carboxamide] | < 1 |
| Cn1nc(C(F)F)cc1Nc1nncn1[C@H]1CCc2sc(NC(=O)C3CC3)c(C(=O)NC[C@@H]3CC34CC4)c2C1 (single isomer, unassigned) [Example 385] | < 1 |
| Cn1nc(OC(F)F)cc1Nc1nncn1[C@H]1CCc2sc(NC(=O)[C@H]3C[C@H](F)C3)c(C(=O)N[C@H]3CC34CC4)c2C1 (single isomer, unassigned) [Example 485] | < 1 |
| O=C(NCC1CC1)c1c(NC(=O)C2CC2)sc2c1C[C@@H](n1cnnc1N[C@H]1CCN(c3ncccn3)C1)CC2 [Example 246] | < 1 |
| CC(C)C(=O)Nc1sc2c(c1C(=O)NCC1CC1)C[C@@H](n1cnnc1Nc1cc(C(F)F)nn1C)CC2 [Example 360, (5S)—N-(cyclopropylmethyl)-5-[3-[[5-(difluoromethyl)-2-methylpyrazol-3-yl]amino]-1,2,4-triazol-4-yl]-2-(2-methylpropanoylamino)-4,5,6,7-tetrahydro-1-benzothiophene-3-carboxamide] | < 1 |
| Cn1nc(C(F)F)cc1Nc1nncn1[C@H]1CCc2sc(NC(=O)[C@H]3CC34CC4)c(C(=O)NCC3CC3)c2C1 [Example 416, (5S)—N-(Cyclopropylmethyl)-5-[3-[[5-(difluoromethyl)-2-methyl-pyrazol-3-yl]amino]-1,2,4-triazol-4-yl]-2-[[(2S)-spiro[2.2]pentane-2-carbonyl]amino]-4,5,6,7-tetrahydrobenzothiophene-3-carboxamide] | < 1 |
| CSc1cccc(Nc2nncn2[C@H]2CCc3sc(NC(=O)C4CC4)c(C(=O)NCC4CC4)c3C2)c1 [Example 249, (5S)-2-(cyclopropanecarbonylamino)-N-(cyclopropylmethyl)-5-[3-(3-methylsulfanylanilino)-1,2,4-triazol-4-yl]-4,5,6,7-tetrahydrobenzothiophene-3-carboxamide] | < 1 |
| COc1ccc(Nc2nncn2[C@H]2CCc3sc(NC(=O)C4CC4)c(C(=O)NCC4CC4)c3C2)c(C)n1 [Example 432, (5S)-2-(cyclopropanecarbonylamino)-N-(cyclopropylmethyl)-5-[3-[(6-methoxy-2-methyl-3-pyridyl)amino]-1,2,4-triazol-4-yl]-4,5,6,7-tetrahydrobenzothiophene-3-carboxamide] | < 1 |
| COc1cc(Nc2nncn2[C@H]2CCc3sc(NC(=O)[C@H]4C[C@@H]4C)c(C(=O)NC[C@H]4C[C@@H]4F)c3C2)n(C)n1 [Example 466, (5S)—N-[[(1R,2S)-2-fluorocyclopropyl]methyl]-5-[3-[(5-methoxy-2-methylpyrazol-3-yl)amino]-1,2,4-triazol-4-yl]-2-[[(1S,2S)-2-methylcyclopropanecarbonyl]amino]-4,5,6,7-tetrahydro-1-benzothiophene-3-carboxamide] | < 1 |
| Cn1nc(OC(F)F)cc1Nc1nncn1[C@H]1CCc2sc(NC(=O)[C@H]3C[C@@H]3F)c(C(=O)NC[C@H]3C[C@@H](F)C3)c2C1 (single isomer, unassigned) [Example 377] | < 1 |
| Cn1nc(OC(F)F)cc1Nc1nncn1[C@H]1CCc2sc(NC(=O)[C@H]3C[C@H](F)C3)c(C(=O)NC[C@@H]3C[C@@H]3F)c2C1 [Example 481, (5S)-5-[3-[[5-(difluoromethoxy)-2-methylpyrazol-3-yl]amino]-1,2,4-triazol-4-yl]-2-[trans-(3-fluorocyclobutanecarbonyl)amino]-N-[[(1S,2S)-2-fluorocyclopropyl]methyl]-4,5,6,7-tetrahydro-1-benzothiophene-3-carboxamide] | < 1 |
